PMC7236970 (Clinical Epigenetics, 2020)

How the values were obtained:
total HDAC = test: In vitro HDAC activity assay, total HDAC; format: biochemical; conditions: for IC50: read-out: IC50 values against total HDAC activity; for total HDAC activity remaining: 2 μM SAHA or 0.1 μM MAKV-8
Protocol: (§1) In vitro HDAC activities were measured as previously described. IC50 values against the various HDAC activities were determined using nonlinear regression in Prism 8.0 software (GraphPad Software, Inc., La Jolla, CA, USA).

Acetyl α-tubulin = test: Western blot of α-tubulin acetylation in K-562 cells; format: cell-based, human; conditions: for effect on α-tubulin acetylation (in words): increasing concentrations
Protocol: (§2) Cells were lyzed in 10% (v/v) Mammalian Protein Extraction Reagent solution (MPER®; Thermofisher, Erembodegen, Belgium) supplemented with 1× protease inhibitor cocktail (Complete EDTA-free, Roche) according to the manufacturer’s instructions. Histone enrichment was performed in acidic conditions as previously described. The protein concentration was determined using the Bradford assay (BioRad).

Acetyl histone H4 = test: Western blot of histone H4 acetylation in K-562 cells; format: cell-based, human; conditions: for effect on histone H4 acetylation (in words): increasing concentrations
Protocol: as §2

K-562 cells [1] = test: Cell proliferation and viability, Trypan Blue exclusion; format: cell-based, human; conditions: for concentration from which cell death was triggered / cell viability decreased / concentration from which cell proliferation was reduced: K-562, 48 h
Protocol: (§4) Cell viability and proliferation were evaluated using the Trypan Blue exclusion method (BioWhittaker ®). Cells were processed using a semi-automated image-based cell analyzer (Cedex XS Innovatis, Roche, Luxembourg, Luxembourg), which provided the cell number as well as cell viability based on the fraction of trypan blue-positive cells.

recombinant HDAC1 = recombinant HDAC1 (Homo sapiens, UniProt Q13547); test: In vitro HDAC activity assay, recombinant HDAC1; format: biochemical; conditions: read-out: IC50 recombinant HDAC1 deacetylase activity
Protocol: as §1

recombinant HDAC6 = target: T1, recombinant HDAC6 (Homo sapiens, UniProt Q9UBN7); test: In vitro HDAC activity assay, recombinant HDAC6; format: biochemical; conditions: read-out: IC50 recombinant HDAC6 deacetylase activity
T1 sequence (Q9UBN7 1-1215): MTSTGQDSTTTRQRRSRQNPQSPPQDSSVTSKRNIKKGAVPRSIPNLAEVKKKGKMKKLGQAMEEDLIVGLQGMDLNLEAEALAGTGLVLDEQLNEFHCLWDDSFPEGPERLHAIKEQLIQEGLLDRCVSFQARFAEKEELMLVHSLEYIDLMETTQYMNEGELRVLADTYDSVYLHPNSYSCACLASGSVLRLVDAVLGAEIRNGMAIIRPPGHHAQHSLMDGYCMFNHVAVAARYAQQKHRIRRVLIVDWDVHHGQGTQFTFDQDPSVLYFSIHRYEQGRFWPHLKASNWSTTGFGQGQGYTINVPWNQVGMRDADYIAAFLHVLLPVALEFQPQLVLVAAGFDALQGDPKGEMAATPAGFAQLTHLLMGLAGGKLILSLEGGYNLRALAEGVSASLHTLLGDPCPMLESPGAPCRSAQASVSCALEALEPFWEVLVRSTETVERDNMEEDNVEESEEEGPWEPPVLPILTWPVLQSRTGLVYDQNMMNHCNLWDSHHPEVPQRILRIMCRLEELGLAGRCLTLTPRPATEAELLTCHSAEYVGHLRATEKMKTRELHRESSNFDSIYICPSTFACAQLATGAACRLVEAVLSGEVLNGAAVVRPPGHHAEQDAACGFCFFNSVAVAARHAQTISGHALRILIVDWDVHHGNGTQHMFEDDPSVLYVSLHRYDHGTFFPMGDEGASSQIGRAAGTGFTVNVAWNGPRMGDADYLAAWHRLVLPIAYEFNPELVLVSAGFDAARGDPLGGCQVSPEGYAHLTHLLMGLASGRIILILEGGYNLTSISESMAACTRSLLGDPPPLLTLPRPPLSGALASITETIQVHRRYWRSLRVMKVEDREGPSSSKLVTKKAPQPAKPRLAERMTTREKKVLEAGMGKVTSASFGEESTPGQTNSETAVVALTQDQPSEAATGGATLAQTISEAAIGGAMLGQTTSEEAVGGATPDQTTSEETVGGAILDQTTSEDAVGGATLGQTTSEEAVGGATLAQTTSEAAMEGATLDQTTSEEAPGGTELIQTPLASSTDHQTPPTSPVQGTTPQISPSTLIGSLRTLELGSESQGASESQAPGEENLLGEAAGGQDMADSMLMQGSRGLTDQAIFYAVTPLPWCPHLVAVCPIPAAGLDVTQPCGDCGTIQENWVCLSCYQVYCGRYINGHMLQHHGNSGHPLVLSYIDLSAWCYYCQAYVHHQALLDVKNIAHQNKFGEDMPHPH
Protocol: as §1

KBM-5 cells [2] = test: Cell proliferation and viability, Trypan Blue exclusion; format: cell-based, human
Protocol: as §4

MEG-01 cells [3] = test: as above; format: cell-based, human
Protocol: as §4

K-562 cells [4] = test: Colony formation assay in methylcellulose; format: cell-based, human; conditions: K-562, 10 days
Protocol: (§3) For colony formation assays, 1000 cells were grown in 1 mL of semi-solid methylcellulose medium (Methocult H4230, StemCell Technologies Inc., Grenoble, France) supplemented with 10% heat-inactivated FCS (BioWhittaker ®) in 12-well plates. Colonies were detected after 10 days of culturing by adding 5 mg/mL 3-(4,5-dimethylthiazol-2-yl)-2,5-diphenyltetrazoliumbromide (MTT) reagent (Sigma-Aldrich) and incubating for 15 min at 37 °C. Pictures were taken with the GelDoc XR+ System (BioRad, Temse, Belgium), and quantifications were conducted using Image J software (US National Institute of Health, Bethesda, MD, USA).

KBM-5 cells [5] = test: Colony formation assay in methylcellulose; format: cell-based, human; conditions: KBM-5, 10 days
Protocol: as §3

MEG-01 cells [6] = test: Colony formation assay in methylcellulose; format: cell-based, human; conditions: MEG-01, 10 days
Protocol: as §3

K-562 cells [7] = test: Cyto-ID quantification of autophagic vesicles; format: cell-based, human; conditions: K-562, 8 h, Cyto-ID staining
Protocol: For fluorescence microscopy, the Cyto-ID® Autophagy Detection Kit (Enzo Life Science) was used according to the manufacturer’s instructions. […] Green fluorescent autophagy-related organelles (pre-autophagosomes, autophagosomes, and autophagolysosomes) were quantified as green signal area per cell nucleus as advised by the manufacturer. Segmentation of these areas was based on 31 parameters assessing color, texture, and edge and was carried out in Ilastik, version 1.3.0 developed by the European Molecular Biology Laboratory, Heidelberg. Classifiers trained for these parameters on a set of representative images were then applied to batch process multiple images as described in Ilastik’s user manual. Binary masks thus obtained were measured in FIJI [59] after applying a size filter to remove small size artifacts resulting from segmentation.

RPMI-1788 cells = test: Healthy cell model viability, nuclear morphology; format: cell-based, human; conditions: RPMI-1788, 48 h, 10 μM MAKV-8
From the text: PBMCs were isolated from the blood of healthy adult human donors obtained from the Red Cross (Luxembourg, Luxembourg) and purified as previously reported [43]. […] Platelets from healthy adult human donors were provided by the Red Cross.

platelets = test: Platelet viability, flow cytometry after Annexin V staining; format: cell-based, human; conditions: 48 h
Protocol: Phosphatidylserine exposure was evaluated using the FITC Annexin V Apoptosis Detection Kit I (BD Biosciences) according to the supplier’s instructions. Stained samples were processed through a cytometer (FACS Calibur, BD Biosciences), and data were recorded statistically (10,000 events/sample) using the CellQuest Pro software (BD, Biosciences). Data were analyzed using the Flow-Jo 8.8.5 software.

K-562 cells [8] = test: Cellular ALDH activity (ALDEFLUOR), ALDH+ LSC fraction; format: cell-based, human; conditions: K-562, 24 h; for ALDH+ cell percentage: untreated cells 50%
Protocol: Cellular ALDH activity was assessed using the ALDEFLUOR^TM kit (StemCell Technologies Inc.) according to the manufacturer’s procedure. Diethylaminobenzaldehyde, a specific inhibitor of ALDH activity, was used to differentiate cells with low or high ALDH activity.

[9] = system: K-562 cells xenografted in zebrafish; test: Zebrafish cancer cell xenograft; format: in vivo; conditions: K-562 cells treated 24 h, injected into zebrafish yolk sac, three days post-injection
Protocol: Cancer xenograft assays in zebrafish were performed as previously described using cells stained with 2 μM CM-Dil (Invitrogen) and diluted in 1× PBS supplemented with 1% phenol red sodium salt solution.

HDAC3 = system: HDAC3; set-up: method as in PMID 18642892; conditions: in vitro; read-out: IC50 towards HDAC3; cited from earlier work
HDAC6 = system: HDAC6; set-up: method as in PMID 18642892; conditions: in vitro; read-out: IC50 towards HDAC6; cited from earlier work
PBMCs [10] = test: Healthy cell viability, Trypan Blue exclusion; conditions: 48 h
Protocol: (§5) PBMCs were isolated from the blood of healthy adult human donors obtained from the Red Cross (Luxembourg, Luxembourg) and purified as previously reported [43].
as §4

PBMCs [11] = system: PBMCs
Protocol: as §5, §4

recombinant HDAC1, sequence (Q13547 whole entry): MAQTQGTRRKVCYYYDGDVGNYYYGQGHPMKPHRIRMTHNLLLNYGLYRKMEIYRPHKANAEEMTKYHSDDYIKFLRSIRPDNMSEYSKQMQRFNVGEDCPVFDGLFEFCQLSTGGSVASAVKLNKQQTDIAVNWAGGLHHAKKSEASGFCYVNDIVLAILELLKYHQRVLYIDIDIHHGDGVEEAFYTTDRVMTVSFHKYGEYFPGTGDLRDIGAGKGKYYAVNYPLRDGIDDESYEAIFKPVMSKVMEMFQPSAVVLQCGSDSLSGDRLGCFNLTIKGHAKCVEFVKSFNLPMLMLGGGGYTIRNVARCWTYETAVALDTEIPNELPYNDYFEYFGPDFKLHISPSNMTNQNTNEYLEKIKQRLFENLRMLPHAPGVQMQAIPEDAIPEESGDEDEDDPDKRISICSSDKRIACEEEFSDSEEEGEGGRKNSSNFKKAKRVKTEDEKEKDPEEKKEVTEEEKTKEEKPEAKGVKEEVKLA

CC(C)(C)OC(=O)Nc1cccc(-c2cc(C(=O)NO)no2)c1 [MAKV-6]
IC50 values against total HDAC activities (in words) (total HDAC; in vitro): low micromolar range
IC50 (total HDAC; in vitro): 1050 ± 220 nM
effect on α-tubulin acetylation (in words) (Acetyl α-tubulin; 24 h): failed to increase α-tubulin acetylation
effect on histone H4 acetylation (in words) (Acetyl histone H4; 24 h): increased histone H4 acetylation only at the highest concentrations
concentration from which cell death was triggered / cell viability decreased (K-562 cells [1]): ≥ 25 µM
concentration from which cell proliferation was reduced (K-562 cells [1]): ≥ 5 µM

CC(C)(C)OC(=O)Nc1ccc(-c2cc(C(=O)NO)no2)cc1 [MAKV-7]
IC50 values against total HDAC activities (in words) (total HDAC; in vitro): low micromolar range
IC50 (total HDAC; in vitro): 22000 nM
effect on α-tubulin acetylation (in words) (Acetyl α-tubulin; 24 h): failed to increase α-tubulin acetylation
effect on histone H4 acetylation (in words) (Acetyl histone H4; 24 h): increased histone H4 acetylation only at the highest concentrations
concentration from which cell death was triggered / cell viability decreased (K-562 cells [1]): ≥ 25 µM
concentration from which cell proliferation was reduced (K-562 cells [1]): ≥ 10 µM

CC(C)(C)OC(=O)Nc1cccc(-c2cc(C(=O)NCCCCCCC(=O)NO)no2)c1 [MAKV-8]
total HDAC activity remaining (total HDAC): about 10%
potency as pan-HDACi relative to SAHA (total HDAC; in vitro): 10 times
IC50 (total HDAC; in vitro): 5.8 ± 3.8 nM
IC50 (recombinant HDAC1): 2.6 nM
IC50 (recombinant HDAC6): 11.4 nM
time at which increase in α-tubulin acetylation begins (Acetyl α-tubulin; 15 µM MAKV-8): ≥ 2 h
concentration from which α-tubulin acetylation was induced (Acetyl α-tubulin; 24 h): ≥ 5 µM
EC50 (Acetyl α-tubulin; Homo sapiens, K562, 24 h, western blot quantification, read-out: EC50 half-maximal acetylation of α-tubulin): 12100 ± 900 nM
time at which increase in histone H4 acetylation begins (Acetyl histone H4; 15 µM MAKV-8): ≥ 2 h
concentration from which histone H4 acetylation was induced (Acetyl histone H4; 24 h): ≥ 1 µM
EC50 (Acetyl histone H4; Homo sapiens, K562, 24 h, western blot quantification, read-out: EC50 half-maximal acetylation of histone H4): 5900 ± 1400 nM
concentration from which cell death was triggered / cell viability decreased (K-562 cells [1]): ≥ 10 µM
concentration from which cell growth was inhibited (K-562 cells [1]; K-562, up to 72 h): about 3 μM
concentration from which cell death was triggered (KBM-5 cells [2]; KBM-5, 48 h): ≥ 10 µM
concentration from which cell growth was inhibited (KBM-5 cells [2]; KBM-5, up to 72 h): about 3 μM
concentration from which cell death was triggered (MEG-01 cells [3]; MEG-01, 48 h): ≥ 10 µM
concentration from which cell growth was inhibited (MEG-01 cells [3]; MEG-01, up to 72 h): about 3 μM
concentration from which colony formation (replicative ability, 3D model) was strongly reduced (K-562 cells [4]): ≥ 5 µM
concentration from which colony formation (replicative ability, 3D model) was strongly reduced (KBM-5 cells [5]): ≥ 10 µM
concentration from which colony formation (replicative ability, 3D model) was strongly reduced (MEG-01 cells [6]): ≥ 5 µM
autophagic signal area per nucleus compared to controls (K-562 cells [7]): about 1.5 times
reduction of living cells (RPMI-1788 cells): about 55%
cytotoxicity in platelets (in words) (platelets): neither alone nor in co-treatments elicited any significant cytotoxicity in platelets
ALDH+ cell percentage (K-562 cells [8]): 24%
tumor formation / tumor volume (in words) [9]: unable to significantly reduce tumor volumes
IC50 (HDAC3): 0.002 nM
IC50 (HDAC6): 0.002 nM
maximum decrease of viable cells (PBMCs [10]): ≤ 30%

COC(=O)CCCCCCNC(=O)c1cc(-c2cccc(NC(=O)OC(C)(C)C)c2)on1 [MAKV-10]
concentration up to which HDAC activities were not inhibited (total HDAC; in vitro): > 100 µM
IC50 (total HDAC; in vitro): > 100000 nM
effect on α-tubulin acetylation (in words) (Acetyl α-tubulin; 24 h): did not augment protein target acetylation levels
effect on histone H4 acetylation (in words) (Acetyl histone H4; 24 h): did not augment protein target acetylation levels
effect on cell proliferation and viability (in words) (K-562 cells [1]; K-562, up to 72 h): neither MAKV-10 nor MAKV-12 impacted K-562 cell proliferation and viability

COC(=O)CCCCCCNC(=O)c1cc(-c2cccc(N)c2)on1 [MAKV-12]
concentration up to which HDAC activities were not inhibited (total HDAC; in vitro): > 100 µM
IC50 (total HDAC; in vitro): > 100000 nM
effect on α-tubulin acetylation (in words) (Acetyl α-tubulin; 24 h): did not augment protein target acetylation levels
effect on histone H4 acetylation (in words) (Acetyl histone H4; 24 h): did not augment protein target acetylation levels
effect on cell proliferation and viability (in words) (K-562 cells [1]; K-562, up to 72 h): neither MAKV-10 nor MAKV-12 impacted K-562 cell proliferation and viability

O=C(CCCCCCC(=O)Nc1ccccc1)NO [SAHA, suberoylanilide hydroxamic acid, reference compound]
total HDAC activity remaining (total HDAC): about 10%
effect on ALDH+ cell proportion (in words) (K-562 cells [8]): failed to reduce the ALDH^+ cell proportion

Cc1ccc(NC(=O)c2ccc(CN3CCN(C)CC3)cc2)cc1Nc1nccc(-c2cccnc2)n1 [imatinib]
ALDH+ cell percentage (K-562 cells [8]): 30%
cell mortality (in words) (PBMCs [11]): failed to trigger any cell mortality
